Data set [1] in a line: Apparent intrinsic clearance in human liver microsomes in presence of NADPH. To be noted: read-out: CLH(app). It is filed as ADME. A general note: Microsomes from liver hold many membrane-bound enzymes, among them those of drug oxidation.
In data set [2] the test system is Hepatocyte. In words: Drug level in human hepatocytes treated with GSK. It is filed as ADME, cell-based.
Data set [3] relates to Hepatocyte. The experiment in a line: Drug metabolism in human hepatocytes assessed as N-(5-(2,6-dichlorophenyl)-1,3,4-thiadiazol-2-yl)-3-(ethylamino)-4-hydroxybenzamide formation. It is filed as ADME, cell-based.
The subject of data set [4] is Hepatocyte. The experiment in a line: Drug metabolism in human hepatocytes assessed as 4-ethyl-3,4-dihydro-2H-benzo[b][1,4]oxazine-6-carboxylic acid formation. It is filed as ADME, cell-based.
Data set [5] in a line: Intrinsic clearance in human hepatocytes. To be noted: read-out: CLH. It is filed as ADME, cell-based, Hepatocyte.
The test system of data set [6] is Hepatocyte. The experiment in a line: Drug metabolism in human hepatocytes assessed as N-(5-(2,6-dichlorophenyl)-1,3,4-thiadiazol-2-yl)-4-(2-hydroxyethyl)-3,4-dihydro-2H-benzo[b][1,4]oxazine-6-carboxamide formation. It is filed as ADME, cell-based.

In the case of `Cn1ncc2ncc(C(=O)Nc3nnc(C4CC4)s3)cc21`, the microsomal CLint in data set [1] is less than 8 µL/min/mg. Turning to `CCn1ncc2ccc(C(=O)Nc3nnc(C4CC4)s3)cc21`, in data set [1], the microsomal CLint is less than 8 µL/min/mg.

Take `CCn1ncc2c(F)cc(C(=O)Nc3nnc(C4CC4)s3)cc21`: the microsomal CLint in data set [1] came to 8.6 µL/min/mg. Turning to `CCn1ncc2c(F)cc(C(=O)Nc3nnc(C4(C)CCN(C(C)=O)CC4)s3)cc21`, in data set [1], the microsomal CLint is less than 8.6 µL/min/mg. Same read-out and setting: for `CCn1ncc2c(Cl)cc(C(=O)Nc3nnc(C4CC4)s3)cc21` the value was 10.9 µL/min/mg. Turning to `O=C(Nc1nnc(-c2c(Cl)cccc2Cl)s1)c1ccc2c(c1)N(CCO)CCO2`, the Drug metabolism result in the data set on Hepatocyte [2] is recorded as “metabolite_detected”. Take `Cn1ncc2ccc(C(=O)Nc3nnc(C4CC4)s3)cc21`: the microsomal CLint in data set [1] was less than 8 µL/min/mg. Regarding `CCNc1cc(C(=O)Nc2nnc(-c3c(Cl)cccc3Cl)s2)ccc1O`, the Drug metabolism result in the data set on Hepatocyte [2] is on record as “metabolite_detected”. Consider `CCN1CCOc2ccc(C(=O)Nc3nnc(C4CC4)s3)cc21`, for which, in data set [1], the microsomal CLint is 25 µL/min/mg. For `CCn1ncc2c(F)cc(C(=O)Nc3nnc(C4(C)CN(C(C)=O)C4)s3)cc21`, the microsomal CLint in data set [1] was less than 8 µL/min/mg. On the same count and under the same terms, for `CCn1ncc2c(F)cc(C(=O)Nc3nnc(C4(C)CCN(C(=O)CO)CC4)s3)cc21` the value was less than 8 µL/min/mg; for `CC(C)n1ncc2ccc(C(=O)Nc3nnc(C4CC4)s3)cc21`, 13.2 µL/min/mg. The same measure, in the same setting: then `Cn1ncc2cc(C(=O)Nc3nnc(C4CC4)s3)ccc21`, with 21.3 µL/min/mg. Regarding `CCn1ncc2c(F)cc(C(=O)Nc3nnc(C4(C)CCN(C(=O)C(C)(C)O)CC4)s3)cc21`, in data set [1], the microsomal CLint turned out to be 20 µL/min/mg. As to `CCN1CCOc2ccc(C(=O)O)cc21`, the Drug metabolism entry with Hepatocyte [2] is “metabolite_detected”. Consider `CCN1CCOc2ccc(C(=O)Nc3nnc(-c4c(Cl)cccc4Cl)s3)cc21`, for which the Drug metabolism entry in the data set with Hepatocyte [3], with Hepatocyte [4] and in the data set with Hepatocyte [6] was “metabolite_detected” throughout. Besides, the CLint scaled in data set [5] was 59 mL/min/kg; in data set [1] it was 39 mL/min/kg.

As for `CCn1ncc2c(F)cc(C(=O)Nc3nnc(C4(C)CCN(C(C)=O)C4)s3)cc21` (racemic), the microsomal CLint in data set [1] was less than 8 µL/min/mg. The same measure, in the same setting: then `CCn1ncc2c(F)cc(C(=O)Nc3nnc(C4(C)CCN(C(=O)C(C)O)CC4)s3)cc21` (racemic), with less than 8 µL/min/mg.

The record behind these values is ChEMBL document CHEMBL3797093, “Optimization of amide-based EP3 receptor antagonists” (Bioorg Med Chem Lett, 2016).
